One compound from patent US10307355B2, “N-aralkylcarbonyldiamine compounds and personal care compositions comprising the same” (Conopco, Inc., priority 2015, dated 2019) can be followed below.

pIC50: −log10 of the molar value.

The target in this assay is T1, human M3 receptor (Homo sapiens, UniProt P20309).
T1 construct: expressed in transfected cells; host or cells: CHO cells (membrane suspension)
The assay can be described thus: Muscarinic 3 receptor binding assay (3H-scopolamine displacement, CHO cell membranes). As to conditions: inhibition of 3H-scopolamine binding to CHO cell suspension expressing the human M3 receptor. The method, then:
The muscarinic 3 receptor binding assay was adapted from Perkin Elmer. […] Atropine (Sigma-Aldrich, St. Louis, Mo.) was used as a positive control. […] The binding reactions were terminated by filtering through the GFC plates and washing & filtering with ice-cold phosphate saline buffer (5×100 μL). Once the filters were dry, microscint scintillation cocktail (100 μL) was added to each well, allowed to sit for 20 min and the plates analyzed using a TopCount scintillation counter. […] Curve fitting of % inhibition versus concentration using Excell software allowed determination of IC50 values for test compounds.

T1 sequence (P20309 whole entry): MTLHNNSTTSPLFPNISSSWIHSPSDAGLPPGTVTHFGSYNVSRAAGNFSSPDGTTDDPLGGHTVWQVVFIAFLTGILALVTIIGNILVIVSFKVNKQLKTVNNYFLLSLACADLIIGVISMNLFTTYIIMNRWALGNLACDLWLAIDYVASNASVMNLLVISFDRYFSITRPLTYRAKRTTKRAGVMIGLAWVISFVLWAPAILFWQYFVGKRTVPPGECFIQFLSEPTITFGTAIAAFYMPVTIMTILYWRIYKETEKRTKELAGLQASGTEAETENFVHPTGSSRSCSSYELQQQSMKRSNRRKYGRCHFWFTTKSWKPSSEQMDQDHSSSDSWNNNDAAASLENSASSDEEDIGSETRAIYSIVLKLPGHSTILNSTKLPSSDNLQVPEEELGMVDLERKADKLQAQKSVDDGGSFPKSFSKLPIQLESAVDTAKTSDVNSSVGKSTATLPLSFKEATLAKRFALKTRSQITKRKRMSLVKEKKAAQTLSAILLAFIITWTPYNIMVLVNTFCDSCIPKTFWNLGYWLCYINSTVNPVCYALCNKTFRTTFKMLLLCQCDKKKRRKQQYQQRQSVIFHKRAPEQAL

Regarding `CN(C)CCN(C)C(=O)C(c1ccccc1)C1CCCC1` (stereo not shown) [Compound 3c], the negative-log IC50 (pIC50) was 5.48.
